In patent publication US11331327B2, “Antibacterial use of halogenated salicylanilides” (UNION therapeutics A/S, priority 2014, dated 2022):
In brackets after ≈: the same amount, converted by molar mass.

System: S. aureus clinical isolates and S. aureus ATCC 29213
Experiment: MIC assay according to CLSI criteria, Example 2, S. aureus strains
Assay type: cell-based, Staphylococcus aureus
Settings: Staphylococcus aureus
How it was run: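 Wells received roughly 5×10^5 S. aureus cells taken in exponential growth, in cation-adjusted MH broth. Plates held aerobically at 37° C for 18 hours.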

SMILES: CN[C@H](CC(C)C)C(=O)N[C@H]1C(=O)N[C@@H](CC(N)=O)C(=O)N[C@H]2C(=O)N[C@H]3C(=O)N[C@H](C(=O)N[C@H](C(=O)O)c4cc(O)cc(O)c4-c4cc3ccc4O)[C@H](O)c3ccc(c(Cl)c3)Oc3cc2cc(c3O[C@@H]2O[C@H](CO)[C@@H](O)[C@H](O)[C@H]2O[C@H]2C[C@](C)(N)[C@H](O)[C@H](C)O2)Oc2ccc(cc2Cl)[C@H]1O [Vancomycin]
- MIC (ATCC29213, strain 9-1862936): 1 µg/mL (≈ 0.69 µM)
- MIC (ATCC29213, strain 9-2625962): 1 µg/mL (≈ 0.69 µM)
- MIC (ATCC29213, strain 9-2642158): 1 µg/mL (≈ 0.69 µM)
- MIC (ATCC29213, strain 9-2955245): 1 µg/mL (≈ 0.69 µM)
- MIC (ATCC29213, strain 9-26422166): 1 µg/mL (≈ 0.69 µM)
- MIC (ATCC29213, strain 000040C): 1 µg/mL (≈ 0.69 µM)
- MIC (ATCC29213, strain 000041C): 1 µg/mL (≈ 0.69 µM)
- MIC (ATCC29213, strain 000274T): 1 µg/mL (≈ 0.69 µM)
- MIC (ATCC29213, strain 114660U): 1 µg/mL (≈ 0.69 µM)
- MIC (ATCC29213, strain 115015T): 2 µg/mL (≈ 1.38 µM)
- MIC (ATCC29213, strain 115242C): 1 µg/mL (≈ 0.69 µM)
- MIC (ATCC29213, strain 115263C): 2 µg/mL (≈ 1.38 µM)
- MIC (ATCC29213, strain 115268C): 1 µg/mL (≈ 0.69 µM)
- MIC (ATCC29213, strain 115273C): 1 µg/mL (≈ 0.69 µM)
- MIC (ATCC29213, strain 115295C): 1 µg/mL (≈ 0.69 µM)
- MIC (ATCC29213, strain 115303C): 1 µg/mL (≈ 0.69 µM)
- MIC (ATCC29213, strain 115370U): 1 µg/mL (≈ 0.69 µM)
- MIC (ATCC29213, strain 115427C): 1 µg/mL (≈ 0.69 µM)
- MIC (ATCC29213, strain 115445C): 1 µg/mL (≈ 0.69 µM)
- MIC (ATCC29213, strain 115561C): 1 µg/mL (≈ 0.69 µM)
- MIC (ATCC29213, strain 115584D): 2 µg/mL (≈ 1.38 µM)
- MIC (ATCC29213, strain 115628T): 2 µg/mL (≈ 1.38 µM)
- MIC (ATCC29213, strain 115690C): 2 µg/mL (≈ 1.38 µM)
- MIC (ATCC29213, strain 115691T): 1 µg/mL (≈ 0.69 µM)
- MIC (ATCC29213, strain 115740E): 1 µg/mL (≈ 0.69 µM)
- MIC (ATCC29213, strain 115810E): 1 µg/mL (≈ 0.69 µM)
- MIC (ATCC29213, strain 115903T): 1 µg/mL (≈ 0.69 µM)
- MIC (ATCC29213, strain 116122T): 1 µg/mL (≈ 0.69 µM)
- MIC (ATCC29213, strain ATCC 29213): 1 µg/mL (≈ 0.69 µM)
- MIC (ATCC29213, strain E5-1029252): 1 µg/mL (≈ 0.69 µM)
- MIC (ATCC29213, strain E5-1029558): 1 µg/mL (≈ 0.69 µM)
- MIC (ATCC29213, strain E5-1030440): 1 µg/mL (≈ 0.69 µM)
- MIC (ATCC29213, strain E5-1030469): 2 µg/mL (≈ 1.38 µM)
- MIC (ATCC29213, strain E5-1030472): 1 µg/mL (≈ 0.69 µM)
- MIC (ATCC29213, strain E5-1030482): 1 µg/mL (≈ 0.69 µM)
- MIC (ATCC29213, strain E5-1033076 (first line, r202)): 1 µg/mL (≈ 0.69 µM)
- MIC (ATCC29213, strain E5-1033076 (second line, r203)): 1 µg/mL (≈ 0.69 µM)
- MIC (ATCC29213, strain E5-1033088): 1 µg/mL (≈ 0.69 µM)
- MIC (ATCC29213, strain E5-1033091): 1 µg/mL (≈ 0.69 µM)
- MIC (ATCC29213, strain E5-1035277): 1 µg/mL (≈ 0.69 µM)
- MIC (ATCC29213, strain E5-1035284): 1 µg/mL (≈ 0.69 µM)
- MIC (ATCC29213, strain E5-1035775): 1 µg/mL (≈ 0.69 µM)
- MIC (ATCC29213, strain E5-1035779): 1 µg/mL (≈ 0.69 µM)
- MIC (ATCC29213, strain E5-1037958): 1 µg/mL (≈ 0.69 µM)
- MIC (ATCC29213, strain E5-1037971): 1 µg/mL (≈ 0.69 µM)
- MIC (ATCC29213, strain E5-1038279): 1 µg/mL (≈ 0.69 µM)
- MIC (ATCC29213, strain E5-1038286): 1 µg/mL (≈ 0.69 µM)
- MIC (ATCC29213, strain E5-1038294): 1 µg/mL (≈ 0.69 µM)
- MIC (ATCC29213, strain E5-1039684): 1 µg/mL (≈ 0.69 µM)
- MIC (ATCC29213, strain E5-1039697): 1 µg/mL (≈ 0.69 µM)
- MIC (ATCC29213, strain E5-1041977): 2 µg/mL (≈ 1.38 µM)
- MIC (ATCC29213, strain E5-1041979): 1 µg/mL (≈ 0.69 µM)
- MIC (ATCC29213, strain E5-1041980): 1 µg/mL (≈ 0.69 µM)
- MIC (ATCC29213, strain E5-1041987): 1 µg/mL (≈ 0.69 µM)
- MIC (ATCC29213, strain E5-1043184): 1 µg/mL (≈ 0.69 µM)
- MIC (ATCC29213, strain E5-1043668): 1 µg/mL (≈ 0.69 µM)
- MIC (ATCC29213, strain E5-1045179): 1 µg/mL (≈ 0.69 µM)
- MIC (ATCC29213, strain E5-1046019): 1 µg/mL (≈ 0.69 µM)
- MIC (ATCC29213, strain E5-1046020): 1 µg/mL (≈ 0.69 µM)
- MIC (ATCC29213, strain E5-1046039): 1 µg/mL (≈ 0.69 µM)
- MIC (ATCC29213, strain E5-1046070): 1 µg/mL (≈ 0.69 µM)
- MIC (ATCC29213, strain E5-1046074): 1 µg/mL (≈ 0.69 µM)
- MIC (ATCC29213, strain E5-1046085): 2 µg/mL (≈ 1.38 µM)
- MIC (ATCC29213, strain E5-1046096): 1 µg/mL (≈ 0.69 µM)
- MIC (ATCC29213, strain E5-1046296): 1 µg/mL (≈ 0.69 µM)
- MIC (ATCC29213, strain E5-1046297): 1 µg/mL (≈ 0.69 µM)
- MIC (ATCC29213, strain E5-1046298): 1 µg/mL (≈ 0.69 µM)
- MIC (ATCC29213, strain E5-1046723): 2 µg/mL (≈ 1.38 µM)
- MIC (ATCC29213, strain E5-1047585): 1 µg/mL (≈ 0.69 µM)
- MIC (ATCC29213, strain E5-1047606): 1 µg/mL (≈ 0.69 µM)
- MIC (ATCC29213, strain E5-1047924): 1 µg/mL (≈ 0.69 µM)
- MIC (ATCC29213, strain E5-1048204): 2 µg/mL (≈ 1.38 µM)
- MIC (ATCC29213, strain E5-1048428): 1 µg/mL (≈ 0.69 µM)
- MIC (ATCC29213, strain E5-1048654): 1 µg/mL (≈ 0.69 µM)
- MIC (ATCC29213, strain E5-1048670): 2 µg/mL (≈ 1.38 µM)
- MIC (ATCC29213, strain EEFIC 01): 1 µg/mL (≈ 0.69 µM)
- MIC (ATCC29213, strain EEFIC 02): 1 µg/mL (≈ 0.69 µM)
- MIC (ATCC29213, strain K000772): 1 µg/mL (≈ 0.69 µM)
- MIC (ATCC29213, strain K000796): 1 µg/mL (≈ 0.69 µM)
- MIC (ATCC29213, strain K000863): 1 µg/mL (≈ 0.69 µM)
- MIC (ATCC29213, strain K000864): 1 µg/mL (≈ 0.69 µM)
- MIC (ATCC29213, strain K000866): 1 µg/mL (≈ 0.69 µM)
- MIC (ATCC29213, strain K115498): 2 µg/mL (≈ 1.38 µM)
- MIC (ATCC29213, strain K115688): 2 µg/mL (≈ 1.38 µM)
- MIC (ATCC29213, strain K115689): 2 µg/mL (≈ 1.38 µM)
- MIC (ATCC29213, strain R000019): 2 µg/mL (≈ 1.38 µM)
- MIC (ATCC29213, strain R000020): 1 µg/mL (≈ 0.69 µM)
- MIC (ATCC29213, strain R000024): 1 µg/mL (≈ 0.69 µM)
- MIC (ATCC29213, strain U115579): 1 µg/mL (≈ 0.69 µM)
- MIC (ATCC 29213 / MRSA, strain MRSA 01): 1 µg/mL (≈ 0.69 µM)
- MIC (ATCC 29213 / MRSA, strain MRSA 02): 2 µg/mL (≈ 1.38 µM)
- MIC (ATCC 29213 / MRSA, strain MRSA 03): 1 µg/mL (≈ 0.69 µM)
- MIC (ATCC 29213 / MRSA, strain MRSA 04): 2 µg/mL (≈ 1.38 µM)
- MIC (ATCC 29213 / MRSA, strain MRSA 05): 1 µg/mL (≈ 0.69 µM)
- MIC (ATCC 29213 / MRSA, strain MRSA 06): 2 µg/mL (≈ 1.38 µM)
- MIC (ATCC 29213 / MRSA, strain MRSA 07): 1 µg/mL (≈ 0.69 µM)
- MIC (ATCC 29213 / MRSA, strain MRSA 08): 1 µg/mL (≈ 0.69 µM)
- MIC (ATCC 29213 / MRSA, strain MRSA 09): 2 µg/mL (≈ 1.38 µM)
- MIC (ATCC 29213 / MRSA, strain MRSA 10): 1 µg/mL (≈ 0.69 µM)
- MIC (ATCC 29213 / MRSA, strain MRSA 11): 1 µg/mL (≈ 0.69 µM)
- MIC (ATCC 29213 / MRSA, strain MRSA 13): 1 µg/mL (≈ 0.69 µM)
- MIC (ATCC 29213 / MRSA, strain MRSA 14): 1 µg/mL (≈ 0.69 µM)
